Residues, ends and D or L forms follow the SMILES beside them.
How the values were obtained:
SNX27 PDZ [1] = target: T1, SNX27 PDZ (Homo sapiens, UniProt Q96L92); assay: FP displacement assay, SNX27 PDZ (MBP-tagged); format: binding; settings: for Kd: MBP-tagged domain, probe FITC-SYT16 5 nM, 50 mM sodium phosphate pH 7.4, room temperature, at least three technical replicates, read-out: KD values ± SEM
T1 construct: SNX27_PDZ__Q96L92_40_141; made in house; host or cells: Escherichia coli BL21-Gold(DE3)
Protocol: For FP, ITC and crystallisation, the tag was removed with the appropriate protease either on beads (0.1 mg/ml thrombin (Cytiva) in PBS, 1 mM dithiothreitol (DTT)) or by dialysis in cleavage buffer (Human Rhinovirus (HRV) 3C protease: 50 mM Tris–HCl pH 7.4, 150 mM NaCl, 1 mM β‐mercaptoethanol), both procedures were overnight. In case of HRV protease cleavage, the tag was separated from the target protein domain by reverse ion metal affinity chromatography using Ni^2+ beads for purification, whereas thrombin was removed using a benzamidine column (Cytiva). Affinity measurements for SNX27 PDZ were performed on the MBP‐tagged construct, as well as PIN1 WW domain on the GST‐tagged construct. For FP and ITC, proteins were dialysed in 50 mM sodium phosphate buffer pH 7.4, 1 mM DTT. For crystallisation of the NTD of clathrin, the protein was further purified by a S200 Sepharose column (Cytiva) using 20 mM Tris–HCl pH 7.4, 150 mM NaCl and 1 mM DTT.
(§1) FP experiments were performed as described previously (Kliche et al, [2021]). Shortly, in order to monitor the binding event, FITC‐labelled peptides were used (excitation 495 nm, emission: 535 nm) and the FP signal was recorded in mP on a SpectraMax iD5 Multi‐Mode Microplate Reader (Molecular Devices) by measuring the emitted light in two angels. The measurements were performed at room temperature and prepared in nonbinding black half area 96‐well microplates (Corning®; 50 μl/well). For measuring direct binding, that is saturation curves, a 1:1 dilution series of protein domain (25 μl/well) was generated in 50 mM sodium phosphate buffer pH 7.4 and the measurement performed with 5 nM FITC‐labelled peptide (25 μl/well). The buffer‐corrected values were subsequently plotted with PRISM and fitted to the quadratic equation (Gianni et al, [2005]).
(§2) The 1:1 dilution series in this experiment was performed with the unlabelled peptide in 50 mM sodium phosphate buffer pH 7.4, so that each well‐contained unlabelled peptide (25 μl) at a certain concentration and pre‐formed complex (25 μl). The KD values of this indirectly monitored binding event were calculated as described previously (Nikolovska‐Coleska et al, [2004]). All measurements were at least in technical triplicates as well as biological duplicates when indicated. An amplitude shift between repeat measurements in the displacement experiments was occasionally observed due to variations in the protein preparations. If that was the case, the “active” protein concentration was back‐calculated according to the quadratic equation from the saturation curves performed in parallel. By comparing the active protein concentrations in the complex between different protein preparations, the amplitude was normalised.

SNX27 PDZ [2] = target: T1, SNX27 PDZ; assay: Phosphomimetic ProP-PD selection, SNX27 PDZ; settings: phosphomimetic enrichment score of the wild-type/phosphomimetic (E) pair at the phosphosite, PM_HD2 phage selection; positive = phosphomimetic enhances binding; P-value in brackets not taken
Protocol: (§3) Selections using the PM_HD2 phage library were performed as described previously with minor modification to the original protocol. The corresponding tag protein (either GST or MBP) was first used during negative selections. Selections were run for 4 days. • Bait and tag proteins (10–15 μg in 100 μl PBS) were immobilised in 96‐well MaxiSorb plate (NUNC) o.n. at 4°C. • Escherichia coli OmniMax bacteria were grown in 2YT medium supplemented with tetracycline (100 μg/ml) at 37°C and 200 rpm. • Plates with immobilised bait/tag proteins were blocked with 0.5% BSA in PBS for 1 h at 4°C. • Phage library (10 μl/well) was prepared by diluting 10× with PBS and adding one‐fourth of the volume of PEG/NaCl. For phage precipitation, prepared library was incubated for 10 min on ice followed by centrifugation for 10 min at 10,000 × g at 4°C. […]
(§4) Based on the results from phage pool ELISAs, samples from selection Day 3 and 4 were selected for NGS, as described previously (Benz et al, [2022]). • Peptide coding regions were amplified and dual‐barcoded by PCR. […] From the columns, samples were eluted with 30 μl TE (10 mM Tris–HCl, 1 mM EDTA. pH 7.5) buffer and quantified with Quant‐iT PicoGreen dsDNA Assay Kit. • Samples were sequenced on MiSeq (MSC 2.5.0.5/RTA 1.18.54) with a 151 nt (Read1) setup using “Version3” chemistry. […]

RANBP2 RanBD4 [3] = target: T2, RANBP2 RanBD4 (Homo sapiens, UniProt P49792); assay: FP displacement assay, RANBP2 RanBD4; format: binding; settings: probe FITC-C7orf25 5 nM, 50 mM sodium phosphate pH 7.4, room temperature, at least three technical replicates, read-out: KD values ± SEM
T2 construct: GST (cleaved yes); made in house; host or cells: Escherichia coli BL21-Gold(DE3)
T2 sequence (P49792 2924-3050): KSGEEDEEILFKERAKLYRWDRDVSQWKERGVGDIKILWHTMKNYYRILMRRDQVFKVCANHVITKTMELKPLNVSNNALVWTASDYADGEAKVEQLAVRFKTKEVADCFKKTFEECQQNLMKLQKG
Protocol: as §1, §2

RANBP2 RanBD4 [4] = target: T2, RANBP2 RanBD4; assay: Phosphomimetic ProP-PD selection, RANBP2 RanBD4; settings: phosphomimetic enrichment score of the wild-type/phosphomimetic (E) pair at the phosphosite, PM_HD2 phage selection; positive = phosphomimetic enhances binding; P-value in brackets not taken
Protocol: as §3, §4

PDCD6IP Alix V domain [5] = target: T3, PDCD6IP Alix V domain (Homo sapiens, UniProt Q8WUM4); assay: FP displacement assay, PDCD6IP Alix V domain; format: binding; settings: probe FITC-HIV1_Gag 5 nM, 50 mM sodium phosphate pH 7.4, room temperature, at least three technical replicates, read-out: KD values ± SEM
T3 construct: GST (cleaved yes); made in house; host or cells: Escherichia coli BL21-Gold(DE3)
T3 sequence (Q8WUM4 360-702): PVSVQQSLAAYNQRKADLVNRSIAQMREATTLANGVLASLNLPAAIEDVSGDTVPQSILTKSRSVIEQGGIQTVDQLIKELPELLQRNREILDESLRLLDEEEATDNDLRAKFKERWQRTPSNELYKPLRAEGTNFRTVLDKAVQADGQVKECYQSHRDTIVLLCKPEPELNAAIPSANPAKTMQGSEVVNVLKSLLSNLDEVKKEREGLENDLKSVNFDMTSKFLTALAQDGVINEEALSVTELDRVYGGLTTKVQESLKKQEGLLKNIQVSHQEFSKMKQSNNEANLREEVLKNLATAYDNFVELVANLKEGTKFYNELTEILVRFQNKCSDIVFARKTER
Protocol: as §1, §2

PDCD6IP Alix V domain [6] = target: T3, PDCD6IP Alix V domain; assay: Phosphomimetic ProP-PD selection, PDCD6IP Alix V domain; settings: phosphomimetic enrichment score of the wild-type/phosphomimetic (E) pair at the phosphosite, PM_HD2 phage selection; positive = phosphomimetic enhances binding; P-value in brackets not taken
Protocol: as §3, §4

With `CC(=O)N[C@@H](CC(N)=O)C(=O)N[C@@H](CC(C)C)C(=O)N[C@@H](CC(C)C)C(=O)N[C@@H](CC(C)C)C(=O)N[C@@H](CCC(=O)O)C(=O)N[C@@H](CCCNC(=N)N)C(=O)N[C@@H](CC(=O)O)C(=O)N[C@H](C(=O)N[C@@H](CCC(=O)O)C(=O)N[C@@H](Cc1ccccc1)C(=O)N[C@H](C(=O)N[C@H](C(=O)N[C@@H](C)C(=O)N1CCC[C@H]1C(=O)N[C@@H](CC(=O)O)C(=O)N[C@@H](Cc1ccc(O)cc1)C(N)=O)C(C)C)[C@@H](C)O)[C@@H](C)O` [CDC25C30–44 E] (Ac-NLLLERDTEFTVAPDY-NH2) the Kd (SNX27 PDZ [1]) was 680 ± 40 µM and the PES (SNX27 PDZ [2]) was −6 (0.00063).
`CSCC[C@H](NC(=O)CNC(C)=O)C(=O)N[C@H](C(=O)N[C@@H](CO)C(=O)N[C@@H](CCC(=O)O)C(=O)N[C@H](C(=O)N[C@@H](CO)C(=O)N[C@@H](Cc1ccccc1)C(=O)N[C@@H](CC(N)=O)C(=O)NCC(=O)NCC(=O)N[C@@H](Cc1ccc(O)cc1)C(N)=O)[C@@H](C)O)C(C)C` [DAXX606–616 E] (Ac-GMVSETSFNGGY-NH2) was tested, and the IC50 (SNX27 PDZ [1]; Fig 4B, SNX27 PDZ, technical triplicates, read-out: IC50 values of displacement curves, with SEM) was 117 ± 25 µM, the Kd (SNX27 PDZ [1]) was 23 ± 4 µM and the PES (SNX27 PDZ [2]) was 6 (0.00063).
In the case of `CC(=O)N[C@@H](CCCCN)C(=O)N[C@@H](Cc1ccc(O)cc1)C(=O)N[C@@H](CO)C(=O)N[C@@H](CC(=O)O)C(=O)N[C@@H](CC(=O)O)C(=O)N[C@H](C(=O)N1CCC[C@H]1C(=O)N[C@@H](CC(C)C)C(=O)N1CCC[C@H]1C(=O)N[C@@H](CCC(=O)O)C(=O)N1CCC[C@H]1C(=O)N[C@@H](CO)C(=O)N[C@@H](Cc1ccc(O)cc1)C(=O)N[C@@H](CCCCN)C(=O)N[C@@H](Cc1ccc(O)cc1)C(=O)N[C@@H](CC(N)=O)C(N)=O)[C@@H](C)O` [DHX38_260–275 E] (Ac-KYSDDTPLPEPSYKYN-NH2), the Kd (RANBP2 RanBD4 [3]) is reported as 470 ± 35 µM and the PES (RANBP2 RanBD4 [4]) is reported as 3 (0.04).
For `CC[C@H](C)[C@H](NC(=O)[C@H](CCCCN)NC(=O)[C@H](CC(C)C)NC(=O)[C@@H]1CCCN1C(=O)[C@H](CCC(=O)O)NC(=O)[C@@H](NC(=O)[C@H](CCC(N)=O)NC(=O)[C@@H]1CCCN1C(=O)[C@H](Cc1ccc(O)cc1)NC(=O)[C@H](CC(C)C)NC(=O)[C@@H]1CCCN1C(=O)[C@H](CCCNC(=N)N)NC(=O)[C@H](CC(C)C)NC(=O)[C@@H]1CCCN1C(=O)[C@H](CO)NC(=O)[C@H](C)NC(C)=O)[C@@H](C)CC)C(N)=O` [FOXK1_212–227 E] (Ac-ASPLRPLYPQIEPLKI-NH2), the Kd (PDCD6IP Alix V domain [5]) was 13 ± 1 µM and the PES (PDCD6IP Alix V domain [6]) was 2.9 (0.04).
In the case of `CC(=O)N[C@@H](Cc1c[nH]cn1)C(=O)N[C@@H](CC(C)C)C(=O)N1CCC[C@H]1C(=O)N[C@@H](CC(C)C)C(=O)N[C@@H](CC(N)=O)C(=O)N[C@@H](CCC(=O)O)C(=O)N1CCC[C@H]1C(=O)N[C@@H](CC(C)C)C(=O)N1CCC[C@H]1C(=O)NCC(=O)N[C@@H](CO)C(=O)N[C@@H](CCC(=O)O)C(=O)N[C@@H](CC(C)C)C(=O)N[C@H](C(=O)N[C@@H](CCCCN)C(=O)N[C@@H](Cc1ccc(O)cc1)C(N)=O)[C@@H](C)O` [INTS6_145–159 E] (Ac-HLPLNEPLPGSELTKY-NH2), the Kd (RANBP2 RanBD4 [3]) is reported as 1080 µM and the PES (RANBP2 RanBD4 [4]) is reported as −4 (0.0044).
For `CC(=O)N[C@H](C(=O)N[C@@H](CCC(=O)O)C(=O)N1CCC[C@H]1C(=O)N[C@@H](CC(C)C)C(=O)N[C@H](C(=O)N[C@@H](CO)C(=O)N[C@@H](CC(C)C)C(=O)N[C@@H](Cc1ccc(O)cc1)C(=O)N1CCC[C@H]1C(=O)N[C@@H](C)C(=O)N[C@@H](CC(C)C)C(=O)N[C@@H](CCC(=O)O)C(=O)N[C@@H](C)C(=O)N[C@@H](CCCNC(=N)N)C(=O)N[C@@H](C)C(=O)N[C@@H](CC(C)C)C(N)=O)C(C)C)[C@@H](C)O` [OTUD5_507–522 E] (Ac-TEPLVSLYPALEARAL-NH2), the Kd (PDCD6IP Alix V domain [5]) was 88 ± 7 µM and the PES (PDCD6IP Alix V domain [6]) was 0.66 (0.34).

Source: article PMC10333884, “Large‐scale phosphomimetic screening identifies phospho‐modulated motif‐based protein interactions” (Molecular Systems Biology, 2023)
